Values quoted from earlier work as cited in article PMC3019532 (Current radiopharmaceuticals, 2010).

Assays:
[1] = test system: CA20948 rat pancreatic tumor cells; settings: 1 h of incubation with 1 × 10^5 CA20948 cells; cited from earlier work
[2] = rat, in vivo; cited from earlier work

Question: Which dose internalized [1] does the source give for “[^177Lu-DOTA^0,Tyr^3]octreotate [[^177Lu]DOTA-TATE]” here?
Answer: The dose internalized was “about 0.03%”.

Question: What about the “metabolism, form present in urine” value [2] of the same substance?
Answer: Its value is “predominantly intact form”.
